Measurements published in patent US20070142396A1, “Treatment of pain with 1-[3-[4-(3-chlorophenyl)-1-piperazinyl]propyl]-5-methoxy-3,4-dihydro-2(1H)-quinolone or salt thereof” (Vela Pharmaceuticals, Inc., priority 2005, published 2007).

System: rats with L5 spinal nerve ligation (SNL model)
Experiment: Spinal nerve ligation (L5) neuropathic pain model, mechanical threshold with von Frey filaments (Example 4)
Assay type: in vivo, rat
Settings: 100 mg/kg oral
Description: A total of 18 Sprague-Dawley (CD sub-strain) young adult (weight: 150-175 g) male rats were purchased from Harlan Sprague Dawley Company (Indianapolis, Ind.), Alabama colony. The rats were kept three per cage and had free access to food and water. Animals were kept in a room with a reversed light-dark cycle (light: 8:00 PM-8:00 AM) for 1 week before experimental manipulations. Ten rats were allocated to the present study. Eight rats were allocated to the study of Example 5, below.
The spinal nerve ligation (SNL) model of neuropathic pain was produced in all rats as described by Kim and Chung (Pain, 50, 355-363, 1992). Briefly, under gaseous anesthesia using halothane (3% for induction and 1.5% for maintenance) in oxygen, the left L5 spinal nerve was exposed by removing the paraspinal muscles and the transverse process of the L6 vertebra. The very proximal portion of the L5 spinal nerve was tightly ligated with 6-0 silk suture. The wounds were closed and anesthesia was discontinued. Rats were kept on a heated blanket until they had completely recovered from anesthesia.
OPC-14523 was dispersed in 0.5% tragacanth in distilled water at 20 mg/ml. It was administered as a oral injection in a dose of 100 mg/kg body weight. Gabapentin was prepared at 10 mg/ml in saline and was administered at 50 mg/kg body weight i.p. Gabapentin is a drug that was originally developed as an anticonvulsant but is now widely used as an analgesic for neuropathic pain (Abdi et al., Anesthesia & Analgesia 87:1360-1366 (1998)).
Ten rats were utilized in a Latin-square-design study comparing the activity of OPC-14523 and other compounds against neuropathic pain. Behavioral tests were conducted twice (1 day and 1 hour) before, as well as 1 and 4 days after, the neuropathic surgery. […] The ten rats were randomly divided into five groups of two rats each. […]
This procedure was repeated five times. […] The result was that all ten animals received each of the indicated five compounds in random order and then had mechanical thresholds determined at the indicated times.
Behavioral tests were conducted in a non-blind fashion. The foot withdrawal threshold to mechanical stimuli applied to the paw (mechanical threshold) was measured, as an indicator of mechanical sensitivity of the affected paw. The foot withdrawal threshold was measured using von Frey filaments. […] The mechanical thresholds were measured by using the “up-and-down” method (Chaplan et al., J. Neurosci. Methods 53(1):55-63, 1994), following the procedures described in previous studies (Park et al., Pain 87(2):171-179, 2000; Xie et al., J. Pain 2(5):270-278, 2001; Baik et al., J. Pain 4:212-221, 2003). […]

Structure (SMILES): COc1cccc2c1CCC(=O)N2CCCN1CCN(c2cccc(Cl)c2)CC1 [OPC-14523, 1-[3-[4-(3-chlorophenyl)-1-piperazinyl]propyl]-5-methoxy-3,4-dihydro-2(1H)-quinolone]
- level of mechanical threshold reached relative to level prior to ligation: comparable to the level observed prior to ligation
- effect on mechanical threshold of the lesioned paw for foot withdrawals (0.5-6 hours): significantly increased
